# Patent US20230338529A1, “COMPOSITIONS FOR ALTERING A MICROGLIAL CELL, AND METHODS OF USE THEREFORE” (The Children's Medical Center Corporation, priority 2020, published 2023)
# Columns and labels:
# microglia = experiment: Microglia depletion in vivo with PLX3397, P2Y12-stained spinal cord; parameters: species or system mice; conditions: 7 days after PLX3397 treatment; P2Y12 staining
# Protocol: Mice were given a lethal dose of anesthesia and transcardially perfused with PBS followed by 4% paraformaldehyde (PFA). PFA fixed tissues were incubated in 30% sucrose in PBS for 3 days at 4° C., embedded in OCT (Tissue-Tek), frozen in a dry ice/ethanol bath, and stored at -80° C. Transverse and sagittal sections were cut on a cryostat at 30 µm thick and stored at -20° C. until processed. Before staining, sections were warmed to room temperature and dried on a 37° C. slide warmer for 2 h. Sections then were treated with a blocking solution containing 10% normal donkey serum and 0.5% Triton-100 for 2 hours at room temperature. The primary antibodies used were: rabbit/goat anti-5-HT [Immunostar (20080/20079), 1: 5,000]; rabbit anti-GFAP [DAKO (Z0334), 1:600]; rat anti-GFAP [Thermo Fisher (13-0300), 1:600]; rabbit anti-P2Y12 [AnaSpec (AS-55043A), 1:200]; rat anti-CD68 [Bio-Rad (MCA1957), 1:600]; rabbit anti-Fibronectin [Millipore (AB2033), 1:200]; rabbit anti- Collagen I [Abcam (ab21286), 1:200]; chicken anti-GFP [Abcam (ab13970), 1:400]; goat anti-SPP1 [R&D (AF808), 1:400]; mouse anti-Ly6G/Ly6C [R&D (MAB1037), 1:200]; mouse anti-CSPG [Sigma-Aldrich (C8035), 1:200]; rabbit anti-CSPG [Sigma-Aldrich (L9393), 1:500]; rabbit anti-RFP [Abcam (ab34771), 1:400]. […]
# [1] = test system: neonatal spinal cord lesion after P2 crush; experiment: P2 spinal cord crush with microglia depletion: bridge formation, wound healing and axon regrowth by immunostaining; type: in vivo, mice
# Protocol: Newborn pups (P2/P7) were anesthetized by isoflurane. A laminectomy was performed at T10 until the spinal cord was exposed completely from side-to-side. The spinal cord was then fully crushed for 2 seconds with forceps with a width of 0.1 mm in the last 5 mm of tips. The muscles and skin were sutured in layers with 6-0 sutures. EMLA topical cream was used for post-surgery analgesia. Animals then were warmed up and kept in a box containing the bedding from the original cage for at least 30 minutes. After that, the closed surgical site was rubbed with the feces from the mom using a Q-tip and then returned to the mom. Feeding was closely monitored in the first week after surgery. Nutra-Gel diets (Bio-Serv) or breeder chow diets were provided to avoid cannibalism. […] In case of bladder dysfunction, bladder emptying was performed once a day until bladder function was restored.
# Mice were given a lethal dose of anesthesia and transcardially perfused with PBS followed by 4% paraformaldehyde (PFA). PFA fixed tissues were incubated in 30% sucrose in PBS for 3 days at 4° C., embedded in OCT (Tissue-Tek), frozen in a dry ice/ethanol bath, and stored at -80° C. Transverse and sagittal sections were cut on a cryostat at 30 µm thick and stored at -20° C. until processed. Before staining, sections were warmed to room temperature and dried on a 37° C. slide warmer for 2 h. Sections then were treated with a blocking solution containing 10% normal donkey serum and 0.5% Triton-100 for 2 hours at room temperature. The primary antibodies used were: rabbit/goat anti-5-HT [Immunostar (20080/20079), 1: 5,000]; rabbit anti-GFAP [DAKO (Z0334), 1:600]; rat anti-GFAP [Thermo Fisher (13-0300), 1:600]; rabbit anti-P2Y12 [AnaSpec (AS-55043A), 1:200]; rat anti-CD68 [Bio-Rad (MCA1957), 1:600]; rabbit anti-Fibronectin [Millipore (AB2033), 1:200]; rabbit anti- Collagen I [Abcam (ab21286), 1:200]; chicken anti-GFP [Abcam (ab13970), 1:400]; goat anti-SPP1 [R&D (AF808), 1:400]; mouse anti-Ly6G/Ly6C [R&D (MAB1037), 1:200]; mouse anti-CSPG [Sigma-Aldrich (C8035), 1:200]; rabbit anti-CSPG [Sigma-Aldrich (L9393), 1:500]; rabbit anti-RFP [Abcam (ab34771), 1:400]. Secondary antibodies included: Alexa Fluor 488-conjugated donkey anti chicken/rabbit; Alexa Fluor 555-conjugated donkey anti goat/rabbit/mouse and Dylight 650-conjugated donkey anti rat (all from Invitrogen). Spinal cord transverse and sagittal sections were imaged with a confocal laser-scanning microscope (Zeiss 700 or Zeiss 710). Figures showing large longitudinal spinal cord section were acquired using Zeiss 710 with image stitching and/or stack software.
# The lesion site was defined and traced using Collagen I, Fibronectin, GFAP, P2Y12, CD68, CD31, CSPG, Laminin or Ly6G/Ly6C staining. Mice were perfused separately at 3, 7 or 14 days after spinal cord crush as described above to visualize lesion site. Cell nuclei were stained by incubation with DAPI for 30 seconds. Immunostaining intensity in the lesion site (100 µm width region in the epicenter) was measured using ImageJ software and normalized to the intact (proximal) region of the spinal cord.
# To quantify the regenerating/late-arriving 5-HT/CST axons after spinal cord crush, sagittal sections through the lesion were stained with antibodies against 5-HT or RFP. Images of 5-6 sections for each animal were taken under a 10X objective and used for quantification. A series of rectangular segments 100 µm wide and 400 µm high covering the dorsal-ventral aspect of the cord were superimposed onto the sagittal sections, starting from lesion center up to a defined distance caudal. After subtracting the background, the pixel value of each segment was normalized by dividing with the rostral segment (1 mm rostral). The results were presented as a ratio at different distances (axons density index).
# To deplete microglia in vivo, adult mice were given the CSF1R inhibitor PLX3397 mixed into AIN-76A standard chow (Research Diets). […]
compound,measurement,setting,value
FC(F)(F)c1ccc(CNc2ccc(Cc3c[nH]c4ncc(Cl)cc34)cn2)cn1 [PLX3397],microglia depletion in neonatal spinal cord,microglia,most microglia were depleted
same,"bridge formation (fibronectin, CD68 staining)","[1]; P2 crush, 3 dpi",defects of bridge formation
same,"wound healing and axon regeneration after neonatal crush (5-HT, GFAP staining)","[1]; P2 crush, 7 dpi",impairs wound healing and axon regeneration
same,GFAP+ reactive astrocytes in the lesion,"[1]; P2 crush, 14 dpi",strong GFAP+ reactive astrocytes accumulating in the epicenter
same,"accumulation of basal lamina components (CSPG, laminin)","[1]; P2 crush, 14 dpi",limited accumulations
same,axon growth at the lesion (5-HT),"[1]; P2 crush, 14 dpi",majority of axons stalled at the lesion epicenter
same,blood vessels in the lesion (CD31),"[1]; P2 crush, 14 dpi",blood vessels were absent
same,bridge formation between the two severed stumps,"[1]; P2 injury model, 3 or 7 dpi",impaired bridge formation
